Patent US20190388389A1, “METHODS AND COMPOSITIONS OF CARNOSOL FOR INHIBITING UVB-INDUCED SKIN DAMAGE” (Ohio University, priority 2017, published 2019)

Tests used:
[1] = system: NO* in HaCaT cells; assay: Nitric oxide measurement (DAF-2DA) after UVB radiation; format: cell-based, Human; conditions: 20 μM carnosol
Procedure: FIGS. 4A-4B: Quantitative analysis of NO* and ONOO^− after UVB radiation. HaCaT cells were irradiated with UVB radiation in the presence or absence of carnosol (20 μM). At indicated time point, cells were stained with DAF-2DA or DAR. The fluorescent intensity was then measured and normalized to cell viability. (FIG. 4A) Quantitative measurement of NO*. (FIG. 4B) Quantitative measurement of ONOO^−. *p<0.05 versus corresponded group with carnosol treatment upon UVB radiation.
The level of NO* was measured by 5 mM diaminofluorescein diacetate (DAF-2DA) (ex490/em520 nm) and ONOO^− was measured by 5 mM diaminorhodamine (DAR) (ex488/em515 nm). 1×10^5 HaCaT cells were seeded in 96-well plate one day before measurement. […] The cells were then incubated in dark for 2 h at room temperature and the fluorescence was measured by luminometer (Molecular devices Spectra Max M2). The reading was then normalized by AlamarBlue cell viability assay (Life technology). 10% of the Alamar Blue reagent was added to cells with medium followed by 2 h incubation at 37° C. in dark then read the fluorescent at ex570/em590 nm using luminometer (Molecular devices Spectra Max M2).
Both NO* and ONOO^− are induced by UVB radiation. By using DAF-2DA (5 mM) and DAR (5 mM), the effect of carnosol on intracellular NO* and ONOO^− level, in a time dependent manner upon UVB radiation, was also measured.

[2] = system: phosphor-Chk; assay: Western blot of DNA damage marker, HaCaT cells; format: cell-based, Human; conditions: 15 min and 1 h post UVB 50 mJ/cm^2
Procedure: (§1) FIGS. 5A-5B: Carnosol protects UVB-induced DNA damage. (FIG. 5A) HaCaT cells and (FIG. 5B) MEF cells were exposed to 50 mJ/cm^2 UVB radiation in the presence or absence of carnosol. Cells were lysed at indicated time point and protein levels of phosphorylated H2AX and Chk were measured. The data represents three sets of independent experiments.
(§2) Cells were lysed with Nonidet P-40 (NP-40) lysis buffer (2% NP-40, 80 mM NaCl, 100 mM Tris-HCl pH 8.0, 0.1% SDS) with proteinase inhibitor mixture (Complete™, Roche Molecular Biochemicals) at indicated time point. Cell lysate was incubated on ice for 15 min and then centrifuged at 14,000 rpm at 4° C. for 15 min. Protein concentration was measured by Protein DC Assay kit (Bio-Rad Laboratories). Equal amounts of protein were subjected on SDS-PAGE and transferred to a nitrocellulose membrane. The membrane was then blocked in 5% milk in Tris buffered saline plus Tween 20 ® (TBST) for 45 min and probed with anti-yH2AX (Cell Signaling), anti-pCHK (Cell Signaling), anti-p276-NF-κB (Santa Cruz), anti-NF-κB p65 (Santa Cruz), anti-IκB (Santa Cruz), or anti-β-actin (Santa Cruz) at 4° C. overnight. After washing with TBST, the membrane was incubated with corresponding HRP-conjugated anti-rabbit or anti-mouse antibody for 45 min at room temperature. […]

[3] = system: γH2AX (phosphorylated H2AX); assay: Western blot of DNA damage marker, HaCaT cells; format: cell-based, Human; conditions: 15 min and 1 h post UVB 50 mJ/cm^2
Procedure: as §1, §2

[4] = system: 6-4 photoproducts (6-4PP); assay: Quantitative measurement of 6-4 photoproducts after UVB; format: cell-based; conditions: with vs without carnosol
Excerpt: FIG. 5F: Quantitative measurement of 6-4 photoproducts (6-4PP), with and without UVB, and with and without carnosol. *p<0.05 versus corresponded control group
There are two major forms of DNA damage caused by UVB radiation: one is the direct DNA damage which forms CPD; the other is the oxidation-caused DNA damage, which causes the formation of 6-4 PP. In order to identify which form of DNA damage is protected by carnosol, a quantitative assay to identify the production of both DNA damage products after UVB radiation with or without carnosol treatment was performed.

[5] = system: A431 human squamous carcinoma cell; assay: Clonogenic assay, A431; format: cell-based
Procedure: FIGS. 9A-9B. Carnosol decreases A431 cancer cell progression. Squamous carcinoma cell A431 was used to determine the effect of carnosol on cancer cell progression. (FIG. 9A) Effect of carnosol on cell viability. Cells were treated upon 50 mJ/cm^2 UVB radiation with or without carnosol treatment. After 24 h, cells were collect and MTT assay was performed to determine the cell viability. *p<0.05 versus control group, **p<0.05 versus UV group at indicated time point. (FIG. 9B) Effect of carnosol on clonogenic assay. Cells were exposed to 8 mJ/cm^2 UVB exposure in the presence or absence of carnosol. 5×10^3 cells were plated into 6 well plate immediately after treatment and incubated for […]. The error bars present the standard deviation of three sets of independent experiments. *p<0.05 versus control group, **p<0.05 versus UV group at indicated time point.
Immediate after treatment, cells were harvested with 0.25% trypsin-EDTA and counted, and then 5×10^3 cells were plated in 6-well plates. After 6 days, cells were fixed with cold methanol for 10 mM at […] and then stained by 1% crystal violet in 25% methanol for 10 mM. Cells were then rinsed with distilled water and colonies with a size greater than 0.4 mm were counted by Kodak IS in vivo F system equipped with Kodak Molecular Imaging Software (Eastman Kodak).

## CC(C)c1cc2c(c(O)c1O)[C@@]13CCCC(C)(C)[C@@H]1C[C@@H]2OC3=O [carnosol]
[1]; average from 2 h to 24 h post UVB
  reduction of NO* level: about 40%
[1]; no UVB
  NO* level of cells without radiation: little effect
[2]
  phosphorylation level of Chk: significantly reduced
[3]
  phosphorylation level of H2AX: significantly reduced
[4]
  6-4 PP formation after UVB radiation: no significant reduction
[5]; A431, carnosol and UVB radiation together
  effect of double treatment on reduction of cancer cell survival: synergistic effect
[5]; A431, carnosol combined with 8 mJ/cm^2 UVB, UVB alone about 43%
  colony formation: about 17%
[5]; A431, carnosol treatment alone
  colony formation rate: about 65%
